# Assay results reported in paper PMC12505902, “Inhibitors of trehalose-6-phosphate synthase activity in fungal pathogens compromise thermal tolerance pathways” (mBio, 2025).
# Like-named read-outs stand apart in the source and are kept apart here.
# How the values were obtained:
# C. albicans = conditions: Supplemental Table 5, cited from earlier work
# 6xHis-CaTps1 [1] = target: T1, 6xHis-CaTps1 (Candida albicans, UniProt Q92410); experiment: UDP Transcreener FP assay, primary screen of the 3PP library; assay type: biochemical; conditions: for inhibition at 500 µM: read-out: CaTps1 FP (% inhibition)
# T1 construct: Briefly, the full-length; thrombin cleavage site (pET-28a linker) (N); made in house; host or cells: E. coli BL21(DE3)pLysS
# T1 sequence (Q92410 1-478): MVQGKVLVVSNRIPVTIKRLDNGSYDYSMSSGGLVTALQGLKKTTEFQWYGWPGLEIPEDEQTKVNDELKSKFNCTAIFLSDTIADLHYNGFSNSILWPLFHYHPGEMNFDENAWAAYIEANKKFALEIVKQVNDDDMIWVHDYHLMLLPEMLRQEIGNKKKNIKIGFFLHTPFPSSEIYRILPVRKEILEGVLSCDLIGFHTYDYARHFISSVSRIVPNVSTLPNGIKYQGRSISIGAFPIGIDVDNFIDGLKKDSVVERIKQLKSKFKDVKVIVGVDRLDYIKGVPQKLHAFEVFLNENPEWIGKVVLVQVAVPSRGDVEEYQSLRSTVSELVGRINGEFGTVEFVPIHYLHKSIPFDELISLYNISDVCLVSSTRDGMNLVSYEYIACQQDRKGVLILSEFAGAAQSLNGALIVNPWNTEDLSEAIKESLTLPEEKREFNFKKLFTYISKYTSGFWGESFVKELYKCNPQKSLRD
# Source text: As the first step of the trehalose biosynthesis pathway, Tps1 synthesizes T6P from the substrates UDP-glucose and G6P, followed by the release of UDP and T6P ([16]). To identify a small molecule inhibitor of Tps1 activity, we adapted an HTS utilizing the UDP Transcreener FP assay ([33], [34]). The FP assay detects the UDP released as a result of the Tps1-mediated enzymatic reaction (Fig. 1A). The FP assay Z’ factor, which describes the suitability of an assay for an HTS, is 0.87, indicating an ideal signal-to-noise ratio (Fig. S1A) ([35]). There was a greater than 175 millipolarization (mP) shift between the positive control novobiocin, an inhibitor with activity against a bacterial trehalose-P-synthase, and the negative control dimethyl sulfoxide (DMSO) (Fig. S1A) ([36]). Recombinant Tps1 from C. albicans, hereafter referred to as CaTps1, was expressed in E. coli and purified via an N-terminal 6xHis-tag and Ni^2-NTA affinity chromatography, followed by size exclusion chromatography (Fig. 1B). A 3-point pharmacophore (3PP) library, which consisted of a subset of 750 compounds of less than 300 Da in molecular mass from the St. Jude Children’s Research Hospital chemical library, was screened for the ability to inhibit 6xHis-CaTps1 activity ([37]). In the primary screen, 32 (4.3 %) compounds that inhibited the activity of 6xHis-CaTps1 by more than 10% at 500 µM concentration were identified (Fig. 1C and D). A 10% cutoff provided a significant number of hits to validate using a dose response assay (Fig. S1B). At the completion of the screen, seven compounds that inhibit the activity of CaTps1 in a dose-dependent manner were selected for further investigation (Fig. 1E; Table 1).
# The glycosyltransferase activity of 6xHis-CaTps1, which results in the release of UDP, was measured using the UDP Transcreener FP assay (BellBrook Labs #3018, Madison, WI). The St. Jude Children’s Hospital (Memphis, TN) 3PP library was screened ([37]). Assays were performed at 37°C for 60 minutes in a 384-well plate using 5 µM 6xHis-CaTps1 in assay buffer containing 50 mM Tris-HCl pH 7.5, 300 mM NaCl, 10 mM MgCl2, and 1 mM dithiothreitol (DTT). Fluorescence polarization was detected using a BMG Labtech plate reader. Each assay plate contained the following additional control wells: (i) no antibody control, (ii) DMSO vehicle control, (iii) novobiocin positive control, and (iv) novobiocin dose-response. Screens were performed by the addition of single-point additions of test molecules to the above assay. The Z’ factor was calculated according to guidelines by Zhang et al., with a Z-factor of 0.5 and 1.0 indicating an excellent assay ([35]).
# C. neoformans [2] = tested on: C. neoformans; set-up: method as in PMID 27248439; conditions: ref [12]; cited from earlier work
# Cryptococcus gattii = tested on: Cryptococcus gattii; set-up: method as in PMID 27248439; conditions: ref [12]; cited from earlier work
# [3] = set-up: method as in PMID 27248439; conditions: ref [12]; cited from earlier work
# 6xHis-CaTps1 [4] = target: T1, 6xHis-CaTps1; experiment: Spectrophotometric-coupled Tps1 enzyme activity assay; assay type: biochemical, C. albicans; conditions: compounds diluted in DMSO, normalized to the DMSO control
# Protocol: Fig 2 4456dh binds Tps1 and inhibits Tps1 activity. (A) Structure of 4456dh. (B and C) Glo-melt thermal shift assays reveal 4456dh destabilizes 6xHis-CaTps1 (B) and 6xHis-CnTps1 (C). The first derivative of the raw data was used to determine the melting temperature of 1 µM 6xHis-CaTps1 (B) and 1 µM 6xHis-CnTps1 (C) treated without (black) or with 2 mM 4456dh (red). […] The resulting dose-response curves were fitted to a one-site binding model to extract Kd values; the SD was calculated using the Kd values from each independent experiment (n = 3). (F) Tps1 enzyme activity assay with 5 µM 6xHis-CaTps1 (F) and 6xHis-CnTps1 (G) ±1 mM 4456dh. Error bars represent SE. […]
# The ability of 4456dh to inhibit the activity of CaTps1 was tested using a spectrophotometric-coupled Tps1 enzyme assay, in which recombinant 6xHis-CaTps1 was incubated with 1 mM 4456dh at 4°C for 16 hours. […] Similarly, the effect of 1 mM 4456dh on 6xHis-CnTps1 activity was determined. […]
# 82 determined by SDS-PAGE analysis, were pooled and concentrated to 1 mg/mL for downstream […]
# 93 The data were acquired with MO.Control 1.5.3 (NanoTemper Technologies GmbH). Recorded
# 94 data were analyzed with MO.Affinity Analysis 2.2.7 (NanoTemper Technologies GmbH). […]
# 100 2X Glo-melt dye. Thermal denaturation was measured using an RT-PCR thermocycler (BioRad) […]
# 102 determined by identifying the inflection point of the derivative data. […]
# C. neoformans [5] = tested on: C. neoformans; set-up: method as in earlier work; conditions: Supplemental Table 5; ref (13); cited from earlier work
# [6] = primary screen, 500 µM compound, 5 µM 6xHis-CaTps1, 37°C 60 minutes
smiles,measurement,setting,value
C[C@@H](c1ncncc1F)[C@](O)(Cn1cncn1)c1ccc(F)cc1F [Voriconazole],MIC80,C. albicans; ref (11),0.06 µg/mL
"CO[C@@H]1[C@@H](OC(N)=O)[C@@H](O)[C@H](Oc2ccc3c(O)c(NC(=O)c4ccc(O)c(CC=C(C)C)c4)c(=O)oc3c2C)OC1(C)C [novobiocin, reference compound]",millipolarization (mP) shift between positive control and DMSO,6xHis-CaTps1 [1]; positive control versus negative control DMSO,greater than 175 mP
O=C(C1CC1)N1CCCNCC1 [SJ000866536-1],inhibition at 500 µM,6xHis-CaTps1 [1]; [6],18.6%
CN(C)C(C#N)c1c(F)cccc1Cl (centres unmarked) [SJ000866107-1],inhibition at 500 µM,6xHis-CaTps1 [1],18.2%
N#CCC(=O)c1ccco1 [SJ000805629-1],inhibition at 500 µM,6xHis-CaTps1 [1]; [6],32.2%
CN1CCc2c(sc(N)c2C#N)C1 [SJ000866390-1],inhibition at 500 µM,6xHis-CaTps1 [1]; [6],36.4%
OC(Cn1cncn1)(Cn1cncn1)c1ccc(F)cc1F [Fluconazole],MIC80,C. albicans; ref (11),1.84 µg/mL
CC[C@H](C)C[C@H](C)CCCCCCCCC(=O)N[C@H]1C[C@@H](O)[C@@H](NCCN)NC(=O)[C@@H]2[C@@H](O)CCN2C(=O)[C@H]([C@H](O)CCN)NC(=O)[C@H]([C@H](O)[C@@H](O)c2ccc(O)cc2)NC(=O)[C@@H]2C[C@@H](O)CN2C(=O)[C@H]([C@@H](C)O)NC1=O [Caspofungin],MIC80,C. albicans; ref (12),1 µg/mL
CN(C)C(C#N)c1ccccc1Cl (centres unmarked) [SJ000866063-1],inhibition at 500 µM,6xHis-CaTps1 [1],19%
Cc1cc(C(C#N)c2ccc(Cl)cc2)c(Cl)cc1NC(=O)c1cc(I)cc(I)c1O (centres unmarked) [Closantel],activity in vitro,C. neoformans [2],potent activity
same,activity in vitro,Cryptococcus gattii,potent activity
same,antifungal activity in murine models,[3],does not have antifungal activity
CC(Cc1ccoc1)NS(C)(=O)=O (centres unmarked) [SJ000866077-1],inhibition at 500 µM,6xHis-CaTps1 [1]; [6],11.1%
Cn1cc(-c2csc(NC(=O)Cc3ccccn3)n2)cn1 [Compound 4456],effect of SJ6675 derivatives on CaTps1 activity,6xHis-CaTps1 [4],significantly inhibited the activity of CaTps1
Nc1[nH]c(=O)ncc1F [Flucytosine],MIC80,C. neoformans [5],8 µg/mL
"Nc1nc(-c2ccoc2)cs1 [SJ000866675-1, [4-furan-3-yl]thiazol-2-amine]",inhibition at 500 µM,6xHis-CaTps1 [1]; [6],13.7%
C[C@@H]1[C@H](O)[C@@H](C)/C=C/C=C/C=C/C=C/C=C/C=C/C=C/[C@H](O[C@@H]2O[C@H](C)[C@@H](O)[C@H](N)[C@@H]2O)C[C@@H]2O[C@](O)(C[C@@H](O)C[C@@H](O)[C@H](O)CC[C@@H](O)C[C@@H](O)CC(=O)O[C@H]1C)C[C@H](O)[C@H]2C(=O)O [Amphotericin B],MIC80,C. neoformans [5],2 µg/mL
